One test has as its target GST-KIF15 1149-1388 (Homo sapiens (Human), UniProt Q9NS87). Briefly: NMR (STD-NMR / WaterLOGSY) versus GST-KIF15. The class given is binding. As to conditions: Hit / No. As to the method:
WaterLOGSY NMR Spectra of Compounds A1 and B2 are provided.
Various cocktails of compounds were prepared to test for interactions. 100 μL DMSO-d6 was added to 3 mg of material. 26 cocktails of 6 compounds were prepared and 3 cocktails of 7 compounds were prepared. Then, 3 μM protein is added to 300 μM of the cocktails in 10% D2O buffer. Concentration of compounds is 10 mM each.
The 166 compound hit samples were further characterized for KIF15 or TPX2 binding using biophysical saturation transfer difference nuclear magnetic resonance (STD-NMR) and WaterLOGSY assays. The 166 compound samples were screened by STD-NMR for evidence of binding to GST-KIF15 or His-TPX2. In our assessment, no hits bound to His-TPX2. The protocol counter-screened potential hits against a His-GST peptide^99 and for aggregation using protein-free controls. Ultimately, three compound hits representing two compound chemotypes were validated to bind KIF15 by WaterLOGSY (FIGS. 4A-4B).

Test [1] concerns the target KIF15/TPX2 protein-protein interaction (GST-KIF15 amino acids 1149-1388, His-TPX2 amino acids 346-747) (Homo sapiens (Human), UniProt Q9NS87). Briefly: KIF15/TPX2 AlphaScreen assay. The format is binding. On the procedure:
The protocol designed peptides corresponding to the appropriate domains of KIF15 (amino acids 1149-1388, GST-tagged) and TPX2 (amino acids 346-747, His-tagged), for use in the AlphaScreen assay.
Next, the protocol screened a total of 191,852 compounds from the KU-HTS library. Analysis identified 584 hits that inhibited the primary AlphaScreen TPX2-KIF15 interaction to greater than three standard deviations plus the plate inhibition-median. The 584 hits were tested for assay interference in the AlphaScreen counter-screen using His-GST fusion protein. […] Of the 467 hits, 399 inhibited the TPX2-KIF15 interaction in a dose-response manner. Refinement was conducted until identifying the compounds provided herein.
To identify compounds that inhibit KIF15-mediated bipolar spindle formation, a process that is dependent on KIF15 binding to TPX2, the protocol designed a high-throughput screen using AlphaScreen Technology. Previous studies predicted that KIF15-TPX2 binding is mediated through a C-terminal coiled-coil domain on KIF15 (amino acids 1149-1388; amino acids 1359-1380) that binds the C-terminal region of TPX2 (amino acids 475-715; amino acids 680-747)^50, 52, 57, 58. Based on these observations, the protocol designed peptides corresponding to the appropriate domains of TPX2 (amino acids 346-747, His-tagged), and KIF15 (amino acids 1149-1388, GST-tagged) for use in the AlphaScreen assay.
Next, the protocol screened a total of 191,852 compounds from the KU-HTS small-molecule compound collection. The protocol identified 584 hits that inhibited the primary AlphaScreen TPX2-KIF15 interaction to greater than three standard deviations plus the plate inhibition-median. The 584 hits were tested for assay interference in the AlphaScreen assay counter-screen using His-GST fusion protein eliminating 117 compounds^99. […] Of the 467 hits, 399 inhibited the KIF15-TPX2 interaction in a concentration-dependent manner (FIGS. 3A-3D), rendering them candidates for follow-on validation in orthogonal and counter-screen assays. Informed by computational and medicinal chemistry assessment^100, the protocol selected a representative subset of approximately 200 of the 399 compound hits for additional characterization. Samples for 177 compounds from the subset of approximately 200 representative compounds were available for purchase. Samples of these 177 compounds were purchased for structure verification by NMR and further characterization. There was enough compound sample procured to complete follow-on screening for 166 of the 177 compounds.
(In general: In Alpha technology, singlet oxygen from a donor bead excites a nearby acceptor bead.)

Sequence of KIF15/TPX2 protein-protein interaction (GST-KIF15 amino acids 1149-1388, His-TPX2 amino acids 346-747) (Q9NS87 1149-1388): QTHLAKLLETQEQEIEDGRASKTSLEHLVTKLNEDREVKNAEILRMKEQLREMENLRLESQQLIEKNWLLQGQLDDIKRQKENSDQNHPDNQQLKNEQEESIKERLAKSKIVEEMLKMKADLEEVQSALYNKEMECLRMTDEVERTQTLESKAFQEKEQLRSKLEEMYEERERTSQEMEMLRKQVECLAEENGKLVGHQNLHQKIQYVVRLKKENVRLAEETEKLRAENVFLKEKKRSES
Sequence of GST-KIF15 1149-1388 (Q9NS87 1149-1388): as above

As for `CCCN1CCN(c2ncc3c(n2)CCN(Cc2ccc(CC)cc2)C3)CC1` [Compound 1, 6-(4-ethylbenzyl)-2-(4-propylpiperazin-1-yl)-5,6,7,8-tetrahydropyrido[4,3-d]pyrimidine], the figures for the IC50 (in “TruHits counter-screen”; in test [1]) were 393 ± 13 µM and 32.2 ± 4.6 µM, respectively. The “NMR Versus GST-KIF15” value on GST-KIF15 1149-1388 was “No”.

For `CCCN1CCN(c2ncc3c(n2)CCN(Cc2cccc(F)c2F)C3)CC1` [Compound 2, 6-(2,3-difluorobenzyl)-2-(4-propylpiperazin-1-yl)-5,6,7,8-tetrahydropyrido[4,3-d]pyrimidine], the 50% inhibitory concentration (IC50) (as a rule, the concentration that inhibits the measured activity by half) in “TruHits counter-screen” stood at 428 ± 38 µM; in test [1], 27.8 ± 4.7 µM. In addition, the “NMR Versus GST-KIF15” value at GST-KIF15 1149-1388 is on record as “No”.

For the compound `CCCN1CCN(c2ncc3c(n2)CCN(Cc2ccc(OCC)c(OCC)c2)C3)CC1` [Compound 3, 6-(3,4-diethoxybenzyl)-2-(4-propylpiperazin-1-yl)-5,6,7,8-tetrahydropyrido[4,3-d]pyrimidine], the IC50 in the test “TruHits counter-screen” turned out to be 510 ± 6 µM; in test [1] it was 42.2 ± 3.3 µM. In addition, at GST-KIF15 1149-1388, the “NMR Versus GST-KIF15” value was “No”.

Turning to `CCCN1CCN(c2ncc3c(n2)CCN(Cc2ccc(Br)s2)C3)CC1` [Compound 4, 6-((5-bromothiophen-2-yl)methyl)-2-(4-propylpiperazin-1-yl)-5,6,7,8-tetrahydropyrido[4,3-d]pyrimidine], the IC50 in “TruHits counter-screen” came out at 312 ± 79 µM; in test [1], 23 ± 1.6 µM. In addition, the “NMR Versus GST-KIF15” value on GST-KIF15 1149-1388 is on record as “Hit”.

In the case of `CCCN1CCN(c2ncc3c(n2)CCN(Cc2cccc(Br)c2)C3)CC1` [Compound 5, 6-(3-bromobenzyl)-2-(4-propylpiperazin-1-yl)-5,6,7,8-tetrahydropyrido[4,3-d]pyrimidine], the figures for the IC50 (in “TruHits counter-screen”; in test [1]) were 287 ± 8 µM and 21 µM, respectively. Further, at GST-KIF15 1149-1388, the “NMR Versus GST-KIF15” value is listed as “Hit”.

With `CCCN1CCN(c2ncc3c(n2)CCN(Cc2ccc(Br)cc2)C3)CC1` [Compound 6, 6-(4-bromobenzyl)-2-(4-propylpiperazin-1-yl)-5,6,7,8-tetrahydropyrido[4,3-d]pyrimidine], the IC50 in the test “TruHits counter-screen” is 628 ± 35 µM; in test [1], 13.6 ± 1.2 µM. The “NMR Versus GST-KIF15” value on GST-KIF15 1149-1388 is recorded as “Hit”.

As to `CCOc1ccc(CN2CCc3nc(N4CCN(CC)CC4)ncc3C2)cc1OCC` [Compound 7, 6-(3,4-diethoxybenzyl)-2-(4-ethylpiperazin-1-yl)-5,6,7,8-tetrahydropyrido[4,3-d]pyrimidine], the results for the IC50 (in “TruHits counter-screen”; in test [1]) were 176 ± 9 µM and 2.8 ± 0.3 µM, respectively. In addition, the “NMR Versus GST-KIF15” value at GST-KIF15 1149-1388 is recorded as “No”.

Consider `CCN1CCN(c2ncc3c(n2)CCN(Cc2cc(OC)c(OC)cc2OC)C3)CC1` [Compound 8, 2-(4-ethylpiperazin-1-yl)-6-(2,4,5-trimethoxybenzyl)-5,6,7,8-tetrahydropyrido[4,3-d]pyrimidine], for which the IC50 in the test “TruHits counter-screen” came out at 120 ± 5.2 µM; in test [1], 2.4 ± 0.1 µM. The “NMR Versus GST-KIF15” value at GST-KIF15 1149-1388 is reported as “No”.

As for `CCN1CCN(c2ncc3c(n2)CCN(Cc2ccc(OC)c(OC)c2OC)C3)CC1` [Compound 9, 2-(4-ethylpiperazin-1-yl)-6-(2,3,4-trimethoxybenzyl)-5,6,7,8-tetrahydropyrido[4,3-d]pyrimidine], the IC50 was 196 ± 0.1 µM in the test “TruHits counter-screen” and 1.7 ± 0.1 µM in test [1]. For the same compound, on GST-KIF15 1149-1388, the “NMR Versus GST-KIF15” value is “No”.

`CCN1CCN(c2ncc3c(n2)CCN(Cc2cc(OC)c(OC)c(OC)c2)C3)CC1` [Compound 11, 2-(4-ethylpiperazin-1-yl)-6-(3,4,5-trimethoxybenzyl)-5,6,7,8-tetrahydropyrido[4,3-d]pyrimidine]: the values for the IC50 (in the test “TruHits counter-screen”; in test [1]) were 556 ± 38 µM and 2.5 ± 0.8 µM, respectively. Also, on GST-KIF15 1149-1388, the “NMR Versus GST-KIF15” value was “No”.

As for `CCOc1ccc(CN2CCc3nc(N4CCN(CC)CC4)ncc3C2)cc1OC` [Compound 12, 6-(4-ethoxy-3-methoxybenzyl)-2-(4-ethylpiperazin-1-yl)-5,6,7,8-tetrahydropyrido[4,3-d]pyrimidine], the IC50 in the test “TruHits counter-screen” came to 305 ± 13 µM; in test [1] it was 3.5 ± 0.5 µM. Further, the “NMR Versus GST-KIF15” value at GST-KIF15 1149-1388 was “No”.

For the compound `CCCN1CCN(c2ncc3c(n2)CCN(Cc2ccc(OCC)c(OC)c2)C3)CC1` [Compound 13, 6-(4-ethoxy-3-methoxybenzyl)-2-(4-propylpiperazin-1-yl)-5,6,7,8-tetrahydropyrido[4,3-d]pyrimidine], the results for the IC50 (in the test “TruHits counter-screen”; in test [1]) were 664 ± 103 µM and 44.8 ± 0.2 µM, respectively. The “NMR Versus GST-KIF15” value at GST-KIF15 1149-1388 is given as “No”.

Consider `CCCN1CCN(c2ncc3c(n2)CCN(Cc2cc(Br)cs2)C3)CC1` [Compound 15, 6-((4-bromothiophen-2-yl)methyl)-2-(4-propylpiperazin-1-yl)-5,6,7,8-tetrahydropyrido[4,3-d]pyrimidine], for which the “NMR Versus GST-KIF15” value on GST-KIF15 1149-1388 is “Hit”.

As for `CCN1CCN(c2ncc3c(n2)CCN(Cc2ccc(F)cc2F)C3)CC1` [Compound 16, 6-(2,4-difluorobenzyl)-2-(4-ethylpiperazin-1-yl)-5,6,7,8-tetrahydropyrido[4,3-d]pyrimidine], on GST-KIF15 1149-1388, the “NMR Versus GST-KIF15” value was “No”.

Consider `CCN1CCN(c2ncc3c(n2)CCN(Cc2cccc(OC)c2OC)C3)CC1` [Compound 17, 6-(2,3-dimethoxybenzyl)-2-(4-ethylpiperazin-1-yl)-5,6,7,8-tetrahydropyrido[4,3-d]pyrimidine], for which the “NMR Versus GST-KIF15” value at GST-KIF15 1149-1388 is given as “No”.

`CCN1CCN(c2ncc3c(n2)CCN(Cc2cc(Br)cs2)C3)CC1` [Compound 18, 6-((4-bromothiophen-2-yl)methyl)-2-(4-ethylpiperazin-1-yl)-5,6,7,8-tetrahydropyrido[4,3-d]pyrimidine]: the “NMR Versus GST-KIF15” value at GST-KIF15 1149-1388 is “Hit”.

As for `CCN1CCN(c2ncc3c(n2)CCN(Cc2ccc(OC(C)C)c(OC)c2)C3)CC1` [Compound 19, 2-(4-ethylpiperazin-1-yl)-6-(4-isopropoxy-3-methoxybenzyl)-5,6,7,8-tetrahydropyrido[4,3-d]pyrimidine], at GST-KIF15 1149-1388, the “NMR Versus GST-KIF15” value is given as “No”.

`CCOc1cccc(CN2CCc3nc(N4CCN(CC)CC4)ncc3C2)c1` [Compound 20, 6-(3-ethoxybenzyl)-2-(4-ethylpiperazin-1-yl)-5,6,7,8-tetrahydropyrido[4,3-d]pyrimidine]: the “NMR Versus GST-KIF15” value at GST-KIF15 1149-1388 is given as “No”.

The record behind these values is patent publication US20240342179A1, “TREATMENT OF CANCERS OR NEOPLASMS BY INHIBITING KIF15” (University of Kansas, priority 2023, published 2024).
